In patent publication US20020137929A1, “1 - (3-heterocyclylphenyl) isothiourea, -isourea, -guanidine and -amidine herbicidal agents” (Intellectual Property Department, BASF Aktiengesellschaft, priority 1998, published 2002):

Key:
ABUTH (Velvetleaf) = experiment: Postemergence herbicidal evaluation; assay type: in vivo, Abutilon theophrasti; details: postemergence
How it was run: (§1)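 Visual 0-9 injury score (stand, vigor, malformation, size, chlorosis, appearance vs untreated) taken four to five weeks post-spray, averaged across repeat tests. Test plants about two weeks old; foliar spray of acetone/water (1:1) with 0.5% surfactant delivering ~0.0156-0.500 kg active/ha.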

[1] = tested on: IPOHE (Morningglory, Ivyleaf); experiment: Postemergence herbicidal evaluation; assay type: in vivo, Ipomoea hederacea; details: postemergence
How it was run: as §1

[2] = tested on: TRZAWR (Wheat, Winter, cv Riband); experiment: Postemergence herbicidal evaluation; assay type: in vivo, Triticum aestivum; details: postemergence
How it was run: as §1

[3] = tested on: CHEAL (Lambsquarters, Common); experiment: Preemergence herbicidal evaluation; assay type: in vivo, Chenopodium album; details: rated 4-5 weeks after treatment, rating scale 0-9
How it was run: (§2)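 Greenhouse preemergence test: seed-soil mix sown on ~1 inch soil; aqueous acetone spray at equivalent of ~0.0156–0.500 kg/ha; greenhouse-held and watered; scored 0–9 visually at 4–5 weeks.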

[4] = tested on: IPOHE (Morningglory, Ivyleaf); experiment: Preemergence herbicidal evaluation; assay type: in vivo, Ipomoea hederacea; details: rated 4-5 weeks after treatment, rating scale 0-9
How it was run: as §2

ECHCG (Barnyardgrass) = experiment: Preemergence herbicidal evaluation; assay type: in vivo, Echinochloa crus-galli; details: rated 4-5 weeks after treatment, rating scale 0-9
How it was run: as §2

SETVI (Foxtail, Green) = experiment: Preemergence herbicidal evaluation; assay type: in vivo, Setaria viridis; details: rated 4-5 weeks after treatment, rating scale 0-9
How it was run: as §2

ORYSAT (Rice, Tebonnet) = experiment: Preemergence herbicidal evaluation; assay type: in vivo, Oryza sativa, (L.) Tebonnet; details: rated 4-5 weeks after treatment, rating scale 0-9
How it was run: as §2

[5] = tested on: TRZAWR (Wheat, Winter, cv Riband); experiment: Preemergence herbicidal evaluation; assay type: in vivo, Triticum aestivum; details: rated 4-5 weeks after treatment, rating scale 0-9
How it was run: as §2

[6] = tested on: ECHORC (Watergrass (Calif.)); experiment: Preemergence weed control under flooded paddy conditions; assay type: in vivo, Echinochloa oryzoides; details: rated 3-4 weeks after treatment
How it was run: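 Seeds or propagules sown in silt loam kept flooded 1.5-3 cm; compounds in 50/50 acetone/water pipetted into flood water at about 0.0313 to 0.500 kg/ha. Greenhouse; visual 0-9 rating versus untreated control 3-4 weeks after treatment.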

MOOVA (Monochoria) = experiment: as above; assay type: in vivo, Monochoria vaginalis; details: rated 3-4 weeks after treatment
How it was run: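 Seeds or propagules sown in top 0.5 cm of silt loam soil, flooded 1.5 to 3 cm above surface throughout. Compound in 50/50 v/v aqueous/acetone pipetted into flood water at about 0.0313 to 0.500 kg/ha. Visual 0-9 rating versus control after three to four weeks in greenhouse.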

Compound: Cc1cccc(CN2C(=O)CSC2=Nc2cc(-n3c(=O)cc(C(F)(F)F)n(C)c3=O)c(F)cc2Cl)c1 [Compound 130, 3-{4-Chloro-2-fluoro-5-{[3-(m-methylbenzyl)-4-oxo-2-thiazolidinylidene]amino}phenyl}-1-methyl-6-(trifluoromethyl)-2,4 (1H, 3H)-pyrimidinedione]
- herbicidal rating ABUTH (ABUTH (Velvetleaf); rate 0.0156 kg/ha): 9.0
- herbicidal rating ABUTH (ABUTH (Velvetleaf); rate 0.0313 kg/ha): 9.0
- herbicidal rating ABUTH (ABUTH (Velvetleaf); rate 0.0625 kg/ha): 9.0
- herbicidal rating IPOHE ([1]; rate 0.0156 kg/ha): 9.0
- herbicidal rating IPOHE ([1]; rate 0.0313 kg/ha): 9.0
- herbicidal rating IPOHE ([1]; rate 0.0625 kg/ha): 9.0
- herbicidal rating TRZAWR ([2]; rate 0.0156 kg/ha): 3.5
- herbicidal rating TRZAWR ([2]; rate 0.0313 kg/ha): 3.5
- herbicidal rating TRZAWR ([2]; rate 0.0625 kg/ha): 4.0
- Preemergence herbicidal rating CHEAL ([3]; rate 0.0156 kg/ha): 9.0
- Preemergence herbicidal rating CHEAL ([3]; rate 0.0313 kg/ha): 9.0
- Preemergence herbicidal rating CHEAL ([3]; rate 0.0625 kg/ha): 9.0
- Preemergence herbicidal rating CHEAL ([3]; rate 0.1250 kg/ha): 9.0
- Preemergence herbicidal rating CHEAL ([3]; rate 0.2500 kg/ha): 9.0
- Preemergence herbicidal rating IPOHE ([4]; rate 0.0156 kg/ha): 0.0
- Preemergence herbicidal rating IPOHE ([4]; rate 0.0313 kg/ha): 0.0
- Preemergence herbicidal rating IPOHE ([4]; rate 0.0625 kg/ha): 2.0
- Preemergence herbicidal rating IPOHE ([4]; rate 0.1250 kg/ha): 9.0
- Preemergence herbicidal rating IPOHE ([4]; rate 0.2500 kg/ha): 7.0
- Preemergence herbicidal rating ECHCG (ECHCG (Barnyardgrass); rate 0.0156 kg/ha): 0.0
- Preemergence herbicidal rating ECHCG (ECHCG (Barnyardgrass); rate 0.0313 kg/ha): 0.0
- Preemergence herbicidal rating ECHCG (ECHCG (Barnyardgrass); rate 0.0625 kg/ha): 1.0
- Preemergence herbicidal rating ECHCG (ECHCG (Barnyardgrass); rate 0.1250 kg/ha): 4.0
- Preemergence herbicidal rating ECHCG (ECHCG (Barnyardgrass); rate 0.2500 kg/ha): 7.0
- Preemergence herbicidal rating SETVI (SETVI (Foxtail, Green); rate 0.0156 kg/ha): 0.0
- Preemergence herbicidal rating SETVI (SETVI (Foxtail, Green); rate 0.0313 kg/ha): 6.0
- Preemergence herbicidal rating SETVI (SETVI (Foxtail, Green); rate 0.0625 kg/ha): 7.0
- Preemergence herbicidal rating SETVI (SETVI (Foxtail, Green); rate 0.1250 kg/ha): 7.0
- Preemergence herbicidal rating SETVI (SETVI (Foxtail, Green); rate 0.2500 kg/ha): 9.0
- Preemergence herbicidal rating ORYSAT (ORYSAT (Rice, Tebonnet); rate 0.0156 kg/ha): 0.0
- Preemergence herbicidal rating ORYSAT (ORYSAT (Rice, Tebonnet); rate 0.0313 kg/ha): 0.0
- Preemergence herbicidal rating ORYSAT (ORYSAT (Rice, Tebonnet); rate 0.0625 kg/ha): 1.0
- Preemergence herbicidal rating ORYSAT (ORYSAT (Rice, Tebonnet); rate 0.1250 kg/ha): 3.0
- Preemergence herbicidal rating ORYSAT (ORYSAT (Rice, Tebonnet); rate 0.2500 kg/ha): 6.0
- Preemergence herbicidal rating TRZAWR ([5]; rate 0.0156 kg/ha): 0.0
- Preemergence herbicidal rating TRZAWR ([5]; rate 0.0313 kg/ha): 0.0
- Preemergence herbicidal rating TRZAWR ([5]; rate 0.0625 kg/ha): 1.0
- Preemergence herbicidal rating TRZAWR ([5]; rate 0.1250 kg/ha): 3.0
- Preemergence herbicidal rating TRZAWR ([5]; rate 0.2500 kg/ha): 6.0
- herbicidal effect rating, ECHORC ([6]; 0.0313 kg/ha): 0.0
- herbicidal effect rating, ECHORC ([6]; 0.0625 kg/ha): 2.0
- herbicidal effect rating, ECHORC ([6]; 0.1250 kg/ha): 3.0
- herbicidal effect rating, ECHORC ([6]; 0.2500 kg/ha): 4.0
- herbicidal effect rating, MOOVA (MOOVA (Monochoria); 0.0313 kg/ha): 0.0
- herbicidal effect rating, MOOVA (MOOVA (Monochoria); 0.0625 kg/ha): 0.0
- herbicidal effect rating, MOOVA (MOOVA (Monochoria); 0.1250 kg/ha): 6.0
- herbicidal effect rating, MOOVA (MOOVA (Monochoria); 0.2500 kg/ha): 6.0

Compound: Cn1c(C(F)(F)F)cc(=O)n(-c2cc(N=C3SCC(=O)N3Cc3ccc(S(N)(=O)=O)cc3)c(Cl)cc2F)c1=O [Compound 135, Alpha-{2-{{2-chloro-5-[3,6-dihydro-3-methyl-2,6-dioxo-4-(trifluoromethyl)-1(2H)-pyrimidinyl]-4-fluorophenyl}imino}-4-oxo-3-thiazolidinyl}-p-toluenesulfonamide]
- herbicidal rating ABUTH (ABUTH (Velvetleaf); rate 0.0156 kg/ha): 4.0
- herbicidal rating ABUTH (ABUTH (Velvetleaf); rate 0.0313 kg/ha): 9.0
- herbicidal rating ABUTH (ABUTH (Velvetleaf); rate 0.0625 kg/ha): 9.0
- herbicidal rating IPOHE ([1]; rate 0.0156 kg/ha): 9.0
- herbicidal rating IPOHE ([1]; rate 0.0313 kg/ha): 9.0
- herbicidal rating IPOHE ([1]; rate 0.0625 kg/ha): 9.0
- herbicidal rating TRZAWR ([2]; rate 0.0156 kg/ha): 2.5
- herbicidal rating TRZAWR ([2]; rate 0.0313 kg/ha): 2.5
- herbicidal rating TRZAWR ([2]; rate 0.0625 kg/ha): 3.0
- Preemergence herbicidal rating CHEAL ([3]; rate 0.0156 kg/ha): 7.0
- Preemergence herbicidal rating CHEAL ([3]; rate 0.0313 kg/ha): 7.0
- Preemergence herbicidal rating CHEAL ([3]; rate 0.0625 kg/ha): 9.0
- Preemergence herbicidal rating CHEAL ([3]; rate 0.1250 kg/ha): 9.0
- Preemergence herbicidal rating CHEAL ([3]; rate 0.2500 kg/ha): 9.0
- Preemergence herbicidal rating IPOHE ([4]; rate 0.0156 kg/ha): 0.0
- Preemergence herbicidal rating IPOHE ([4]; rate 0.0313 kg/ha): 0.0
- Preemergence herbicidal rating IPOHE ([4]; rate 0.0625 kg/ha): 1.0
- Preemergence herbicidal rating IPOHE ([4]; rate 0.1250 kg/ha): 9.0
- Preemergence herbicidal rating IPOHE ([4]; rate 0.2500 kg/ha): 9.0
- Preemergence herbicidal rating ECHCG (ECHCG (Barnyardgrass); rate 0.0156 kg/ha): 0.0
- Preemergence herbicidal rating ECHCG (ECHCG (Barnyardgrass); rate 0.0313 kg/ha): 0.0
- Preemergence herbicidal rating ECHCG (ECHCG (Barnyardgrass); rate 0.0625 kg/ha): 0.0
- Preemergence herbicidal rating ECHCG (ECHCG (Barnyardgrass); rate 0.1250 kg/ha): 0.0
- Preemergence herbicidal rating ECHCG (ECHCG (Barnyardgrass); rate 0.2500 kg/ha): 1.0
- Preemergence herbicidal rating SETVI (SETVI (Foxtail, Green); rate 0.0156 kg/ha): 0.0
- Preemergence herbicidal rating SETVI (SETVI (Foxtail, Green); rate 0.0313 kg/ha): 0.0
- Preemergence herbicidal rating SETVI (SETVI (Foxtail, Green); rate 0.0625 kg/ha): 2.0
- Preemergence herbicidal rating SETVI (SETVI (Foxtail, Green); rate 0.1250 kg/ha): 4.0
- Preemergence herbicidal rating SETVI (SETVI (Foxtail, Green); rate 0.2500 kg/ha): 7.0
- Preemergence herbicidal rating ORYSAT (ORYSAT (Rice, Tebonnet); rate 0.0156 kg/ha): 1.0
- Preemergence herbicidal rating ORYSAT (ORYSAT (Rice, Tebonnet); rate 0.0313 kg/ha): 1.0
- Preemergence herbicidal rating ORYSAT (ORYSAT (Rice, Tebonnet); rate 0.0625 kg/ha): 1.0
- Preemergence herbicidal rating ORYSAT (ORYSAT (Rice, Tebonnet); rate 0.1250 kg/ha): 1.0
- Preemergence herbicidal rating ORYSAT (ORYSAT (Rice, Tebonnet); rate 0.2500 kg/ha): 7.0
- Preemergence herbicidal rating TRZAWR ([5]; rate 0.0156 kg/ha): 0.0
- Preemergence herbicidal rating TRZAWR ([5]; rate 0.0313 kg/ha): 0.0
- Preemergence herbicidal rating TRZAWR ([5]; rate 0.0625 kg/ha): 0.0
- Preemergence herbicidal rating TRZAWR ([5]; rate 0.1250 kg/ha): 0.0
- Preemergence herbicidal rating TRZAWR ([5]; rate 0.2500 kg/ha): 1.0
- herbicidal effect rating, ECHORC ([6]; 0.0313 kg/ha): 7.0
- herbicidal effect rating, ECHORC ([6]; 0.0625 kg/ha): 7.0
- herbicidal effect rating, ECHORC ([6]; 0.1250 kg/ha): 7.0
- herbicidal effect rating, ECHORC ([6]; 0.2500 kg/ha): 9.0
- herbicidal effect rating, MOOVA (MOOVA (Monochoria); 0.0313 kg/ha): 6.0
- herbicidal effect rating, MOOVA (MOOVA (Monochoria); 0.0625 kg/ha): 9.0
- herbicidal effect rating, MOOVA (MOOVA (Monochoria); 0.1250 kg/ha): 9.0
- herbicidal effect rating, MOOVA (MOOVA (Monochoria); 0.2500 kg/ha): 8.0
